Results on one compound are retold here after patent US11959096B2, “Methods for selective inhibition of pluripotent stem cells” (THE MEDICAL COLLEGE OF WISCONSIN, INC., priority 2014, dated 2024).

In series [1] the test system is hiPSC. Briefly: Live/dead staining (calcein AM / ethidium homodimer-1). The format is cell-based, human. As for the experimental part: (§1) In Vitro Toxicity Assays: Treatment with small molecules or glucose deprivation was initiated in hESC or hiPSC at 24 and 96 h post-plating and in vitro toxicity assays were performed at specified treatment endpoints 24-96 hours after treatment initiation. […] Neutral red assays for cell viability were performed as previously described. In vitro cell death was determined using SYTOX® Green nucleic acid stain (Life Technologies). Briefly, cells were incubated in 5 μM SYTOX® Green for 30 minutes at 37° C. in a humidified cell incubator with 5% CO2. Percent cell viability was determined by normalizing to replicate cells incubated with 120 μM digitonin (Sigma-Aldrich) and 5 μM SYTOX® Green. Imaging of cell viability was performed using Live/Dead® Viability/Cytotoxicity Kit, for mammalian cells (Life Technologies). Cells were stained for 20 minutes at room temperature with 4 μM Calcein AM to detect viable cells and 2 μM Ethidium Homodimer 1 to detect cells with compromised membranes. Representative images of alterations in cell morphology were acquired on confluent hPSC 24-72 hours after treatment initiation. Imaging was performed with a Nikon Ti-U inverted microscope.

Series [2] deals with sub-confluent hiPSC. Briefly: Glucose uptake assay ([3H]2-deoxyglucose). The format is cell-based, human. How it is done:
For 1 hour treatment, cells were placed in Krebs-Ringer Hepes (KRH) containing treatment at 37° C. in a humidified cell incubator with 5% CO2. For 15, 18, and 24 hour treatments, cells were treated in E8 medium for 14, 17, and 23 hours, respectively, at which point media was changed to KRH buffer containing specific treatment for 1 hour. After specified treatment time, glucose uptake was performed with 0.5 μCi [^3H]2-deoxyglucose for 5 min at 37° C. as previously described. Uptake data were normalized to protein concentration measured with Lowry method.

Series [3] concerns DF6-9-9T hiPSC in co-culture with day 10 cardiomyocytes or human fibroblasts. In words: Colony formation assay in co-cultures of hiPSC with differentiated cells. The series is classed as cell-based. To be noted: 5 μM. As for the experimental part:
The first iteration was adapted from previously described method, after 24 hours of treatment, hiPSC were detached with Accutase (StemCell Technologies), re-suspended in E8, passed though 12×75 mm tube with cell strainer cap (Falcon), and plated at 5e4 live cells per 2 cm^2. Media were changed every 48 hours and cells were cultured for six days, at which time staining for alkaline phosphatase was performed with leukocyte alkaline phosphatase kit (Sigma-Aldrich) as described and plates were visually inspected for phosphatase-positive colonies. This strategy represents the most common implementation of the colony formation assay. However, concerns regarding the cell death normally encountered during passaging prompted another approach for stricter assessment. In the second iteration, cells were treated for 24 hours, washed twice with 0.5 mL D-PBS, and media refreshed with E8. Thereafter, media were replaced daily for six days at which point staining for alkaline phosphatase activity was performed. […] Elimination of hiPSC from co-cultures with differentiated cells was performed with human fibroblasts and day 10 cardiomyocytes derived from hiPSC. hiPSC (DF6-9-9T) were plated at concentrations ranging from 100-10,000 live cells per well with human fibroblasts (1.75e5 cells) or day 10 differentiated cardiomyocytes (3.75e5 cells) in E8 and Y-27632 per 9.6 cm^2. […]

For series [4] the following is noted: DMSO; cited from earlier work.
For the next series, the system named is human fibroblasts. As to conditions: treatment time extended to 72 hours; previous report [19]; cited from earlier work.
The test system of another series is confluent hiPSC. In words: Colony formation assay (alkaline phosphatase staining). The format is cell-based, human. To be noted: for colony formation: 24 hours treatment, no passaging, six days. How it is done:
The first iteration was adapted from previously described method, after 24 hours of treatment, hiPSC were detached with Accutase (StemCell Technologies), re-suspended in E8, passed though 12×75 mm tube with cell strainer cap (Falcon), and plated at 5e4 live cells per 2 cm^2. Media were changed every 48 hours and cells were cultured for six days, at which time staining for alkaline phosphatase was performed with leukocyte alkaline phosphatase kit (Sigma-Aldrich) as described and plates were visually inspected for phosphatase-positive colonies. This strategy represents the most common implementation of the colony formation assay. However, concerns regarding the cell death normally encountered during passaging prompted another approach for stricter assessment. In the second iteration, cells were treated for 24 hours, washed twice with 0.5 mL D-PBS, and media refreshed with E8. Thereafter, media were replaced daily for six days at which point staining for alkaline phosphatase activity was performed. […] Elimination of hiPSC from co-cultures with differentiated cells was performed with human fibroblasts and day 10 cardiomyocytes derived from hiPSC. hiPSC (DF6-9-9T) were plated at concentrations ranging from 100-10,000 live cells per well with human fibroblasts (1.75e5 cells) or day 10 differentiated cardiomyocytes (3.75e5 cells) in E8 and Y-27632 per 9.6 cm^2. […] Six days after plating, staining for alkaline phosphatase activity was performed. […] Imaging of wells was performed with a Sony Cyber-shot DSC-TX30 and individual colonies with a Nikon stereoscope.

The nature of series [5]: SYTOX Green cell viability assay. To be noted: human, hiPSC (DF6-9-9T) cells. The format is cell-based, human. As for the experimental part:
as §1

For series [6], the system named is hiPSC. Briefly: Extracellular flux analysis (ECAR, OCR). The format is cell-based, human. As for the experimental part: Extracellular Flux Analysis: hiPSC were plated at 6e4 cells per well on specialized microplate (Seahorse Bioscience) as previously described with several exceptions. Extracellular flux analysis was performed on hiPSC 48 hours post-plating using Seahorse Bioscience XF24 Analyzer. […] The microplate was equilibrated in non-CO2 incubator for 1.5 h, and analyzed for 16 h in Seahorse Bioscience XF24 Analyzer. Assay medium consists of basal E8 reagents with the following exceptions: basal DMEM F-12 without phenol red (Gibco), no sodium bicarbonate, and 2.5 mM GlutaMAX™ (Gibco) and 15 mM Hepes (Gibco). Assay medium was adjusted to pH 7.4 at 37° C. prior to use. Extracellular acidification rate (ECAR) and basal oxygen consumption rate (OCR) were collected approximately every 60 minutes. Treatments were normalized to baseline media control value and are represented as average of thee biological replicates.

The subject of series [7] is hiPSC. In words: Nucleotide pool measurements (HPLC). The series is classed as cell-based, human. As for the experimental part:
Nucleotide Pool Measurements: ATP, ADP, AMP, and NAD^+ were extracted using perchloric acid precipitation and analyzed using HPLC, following a previously published method. ATP, ADP, AMP and NAD^+ peaks were measured for each sample, compared with the standards, and normalized to protein levels.

The subject of series [8] is sub-confluent hiPSC. In words: Immunoblot analysis of p-AMPK, AMPK, cleaved caspase-3 and -9. The series is classed as cell-based, human. To be noted: 2.5 μM STF-31, 30 μM WZB117. How it is done:
Immunoblot Analysis: Non-adherent cells were collected by centrifugation, adherent cells were washed once with d-PBS and lysed in Laemmli buffer, combined with non-adherent cell pellet, and heated at 95° C. for 5 minutes. Protein concentration was measured using the Qubit protein assay (Life Technologies). 25 μg of total protein was separated by SDS-PAGE, transferred to nitrocellulose membrane (GE Healthcare Life Sciences) and blocked according to the manufacturer's instructions. Membranes were incubated overnight at 4° C. with the following dilutions of primary antibodies: rabbit anti-cleaved caspase-3 (1:500), rabbit anti-caspase-9 (1:1000), rabbit anti-phospho-AMPK (1:1000), and rabbit anti-AMPK (1:1,000) from Cell Signaling Technology, and mouse anti-GAPDH (1:10,000) from Life Technologies. Membranes were then incubated with secondary antibodies for 45 minutes at the following concentrations: donkey anti-mouse-horseradish peroxidase (1:5,000) and donkey anti-rabbit-horseradish peroxidase (1:7,000) from Jackson Immunoresearch Laboratories, Inc., followed by detection using enhanced chemiluminescence.
In general terms: Immunoblotting shows a protein as a band on a membrane.

The structures appear in SMILES notation.

In the case of `CC(C)(C)c1ccc(S(=O)(=O)NCc2ccc(C(=O)Nc3cccnc3)cc2)cc1` [STF-31, 4-[[[[4-(1,1-Dimethylethyl)phenyl]sulfonyl]amino]methyl]-N-3-pyridinyl-benzamide], the live/dead staining result was “small patches of live cells remained” in the series on hiPSC [1] (48 hours, 2.5 μM STF-31) and “not visible” with hiPSC [1] (72 hours, confluent, 2.5 μM STF-31, 30 μM WZB117, 20 μM PluriSIn). In addition, the “first time point with decrease in glucose uptake” value in the series with sub-confluent hiPSC [2] (2.5 μM STF-31) was determined as 18 h. In addition, in the series on sub-confluent hiPSC [2] (1 hour of treatment, 2.5 μM STF-31, 30 μM WZB117), the “decrease in glucose uptake” value is “did not alter glucose uptake”. Besides, the “elimination of hiPSC colonies from co-culture” value in series [3] (24-hour pulse, day 10 cardiomyocytes) is “elimination of a majority of hiPSC colonies”; in series [3] (48 hour pulse, day 10 cardiomyocytes or human fibroblasts), “completely eliminate hiPSC”. Moreover, in [4], the solubility entry is reported as “soluble in DMSO”. Besides, the cell viability entry in the series on human fibroblasts was “did not result in a decrease in cell viability”. Moreover, the “formation of alkaline phosphatase-positive colonies” value in the series with confluent hiPSC (24 hour pulse, cells passaged, cultured 6 days) is listed as “prevented the formation of alkaline phosphatase-positive colonies”. Besides, the colony formation entry with confluent hiPSC (2.5 μM STF-31) is listed as “a limited number of colonies formed”; in the series with confluent hiPSC (5 μM STF-31), “no colonies were observed”. Further, the viability at 72 h, 2.5 μM in [5] is 10%. Also, the “delay of decrease in ECAR compared to inhibitors of glucose oxidation” value with hiPSC [6] (2.5 μM STF-31) is reported as “up to 15 hours”. The “time before reductions in OCR” value in the series on hiPSC [6] (2.5 μM STF-31, 30 μM WZB117) was determined as 15 h. Further, in the series with hiPSC [7] (2.5 μM STF-31), the “time until ATP levels decrease” value is 18 h. For the same compound, the “NAD+ levels” value in the series with hiPSC [7] (2.5 μM STF-31, by 3 hours) was −50%; in the series on hiPSC [7] (2.5 μM STF-31, by 18 hours), below 1%. Moreover, the “time at which cleaved caspase-3 and -9 are observed” value with sub-confluent hiPSC [8] is “significantly later”. In addition, the “time at which p-AMPK is detected/increased” value in the series with sub-confluent hiPSC [8] (post-treatment) was 24 h.

As usually defined, the viability is a per cent measure of how many cells are alive, often set against a control. A lower viability goes with more harm to the cells.
